These results are taken from the supplement of paper PMC11061612.

Assay [1] deals with KMS-12-BM (Plasma Cell Myeloma). The assay is described as follows: Bliss excess, mean over the matrix (fraction); higher = more synergy. A digest of the protocol:
(§1)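 Bliss excess equals the observed combination effect minus the expected value EA + EB − EA·EB, where EA and EB are the effects of each agent alone. Combination Emax is the second-highest inhibition within the matrix. Inhibition was scaled from CellTiter-Glo 2.0 luminescence, with 0 set by vehicle wells and 1 by blank wells, after 72 hours of two-drug dosing of cells plated in 1536-well plates.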

Assay [2] has as its system NCI-H661 (Non-Small Cell Lung Carcinoma). The description is as above. In a few lines: as §1
In assay [3] the test system is SNU-398 (Hepatocellular Carcinoma). The description is as above. In a few lines: as §1
Assay [4] relates to MOLM-13 (Acute Myeloid Leukemia). The description is as above. A digest of the protocol: as §1
Assay [5] has as its system RPMI-8226 (Plasma Cell Myeloma). Described as above. A digest of the protocol:
as §1

Assay [6] relates to KY821 (Acute Myeloid Leukemia). The assay is described as above. In a few lines:
as §1

The subject of assay [7] is COR-L279 (Small Cell Lung Carcinoma). The assay is described as above. In a few lines: as §1
In assay [8] the test system is KP-3 (Pancreatic Carcinoma). The description is as above. In a few lines:
as §1

Assay [9] deals with NCI-H520 (Squamous Cell Lung Carcinoma). Described as above. A digest of the protocol: as §1
Assay [10] deals with NCI-H2731 (Mesothelioma). The assay is described as above. A digest of the protocol: as §1
In assay [11] the test system is M059J (Glioblastoma). The description is as above. In a few lines: as §1
In assay [12] the test system is ESO51 (Esophageal Adenocarcinoma). The description is as above. In a few lines:
as §1

Assay [13] has as its system NCI-H929 (Plasma Cell Myeloma). The description is as above. A digest of the protocol: as §1
Assay [14] deals with SJSA-1 (Osteosarcoma). The description is as above. A digest of the protocol: as §1
The subject of assay [15] is SU-DHL-5 (B-Cell Non-Hodgkin's Lymphoma). Described as above. A digest of the protocol:
as §1

The subject of assay [16] is 8505C (Thyroid Gland Carcinoma). The description is as above. A digest of the protocol:
as §1

Assay [17] deals with JHH-4 (Hepatocellular Carcinoma). Described as above. A digest of the protocol: as §1
The test system of assay [18] is G-361 (Melanoma). Described as above. In a few lines: as §1
For assay [19], the system named is T-T (Esophageal Squamous Cell Carcinoma). Described as above. A digest of the protocol: as §1
Assay [20] deals with ST486 (Burkitt's Lymphoma). The assay is described as follows: combination Emax (second highest fraction inhibited in the dose matrix, 72 h); higher = more inhibition; extreme values may be limits of the assay. A digest of the protocol: as §1

For `Cn1cnc2c(F)c(Nc3ccc(Br)cc3Cl)c(C(=O)NOCCO)cc21` [Selumetinib] + CC(C)n1c(=O)n(C)c2cnc3cc(F)c(-c4ccc(OCCCN5CCCCC5)nc4)cc3c21 [AZD1390] (first compound max 10 µM, 7x7, partner max 0.3 µM), the Bliss excess in assay [1] was 0.0032; in [2], -0.0559; in assay [3], -0.053; in [4] it was -0.0306; in [5], 0.0158; in assay [6], 0.0169. The Bliss excess is -0.0094 in assay [7]; -0.0456 in assay [8]; -0.0486 in assay [9]; -0.0364 in [10]; -0.0375 in [11]; 0.0114 in assay [12]. Further, the Bliss excess in [13] was 0.0105; in [14] it was -0.042; in [15], 0.0267; in assay [16] it was -0.0717; in assay [17], -0.0444; in assay [18], -0.0582. In assay [19], the Bliss excess is -0.0162. In assay [20], the “combination Emax” value turned out to be 0.455.
For `Cn1cnc2c(F)c(Nc3ccc(Br)cc3Cl)c(C(=O)NOCCO)cc21` [Selumetinib] + CCN(CCO)CCCOc1ccc2c(Nc3cc(CC(=O)Nc4cccc(F)c4)[nH]n3)ncnc2c1 [AZD2811] (first compound max 10 µM, 7x7, partner max 1 µM), the Bliss excess in [1] is 0.0832; in assay [2] it was -0.0645; in assay [3], 0.0026; in [4], 0.0359; in [5] it was 0.0053; in assay [6] it was 0.05. Moreover, the Bliss excess in assay [7] was -0.0243; in assay [8] it was -0.0293; in assay [9] it was -0.0221; in [10], -0.0293; in assay [11] it was -0.033; in [12], 0.0567. For the same molecule, the Bliss excess was 0.01 in [13]; -0.0705 in assay [14]; 0.0214 in [15]; -0.0546 in assay [16]; -0.0412 in [17]; 0.0005 in [18]. Moreover, in assay [19], the Bliss excess was -0.0072. The “combination Emax” value in assay [20] was found to be 0.852.
With `Cn1cnc2c(F)c(Nc3ccc(Br)cc3Cl)c(C(=O)NOCCO)cc21` [Selumetinib] + C[C@@H]1COCCN1C2=NC(=NC(=C2)C3(CC3)[S@](=N)(=O)C)C4=C5C=CNC5=NC=C4 [AZD6738] (first compound max 10 µM, 7x7, partner max 10 µM), the Bliss excess is 0.0112 in assay [1]; -0.0627 in assay [2]; 0.0082 in [3]; 0.0491 in assay [4]; 0.0032 in [5]; -0.0519 in [6]. Further, the Bliss excess is -0.0377 in assay [7]; -0.0459 in assay [8]; -0.0804 in [9]; -0.0187 in [10]; -0.056 in [11]; 0.0119 in [12]. Moreover, the Bliss excess is -0.121 in assay [13]; 0.0241 in [14]; 0.074 in assay [15]; 0.111 in assay [16]; -0.0395 in assay [17]; -0.0081 in assay [18]. In assay [19], the Bliss excess was -0.041. The “combination Emax” value in assay [20] came to 0.877.
As for `CC(=O)Nc1cccc(-n2c(=O)n(C3CC3)c(=O)c3c(Nc4ccc(I)cc4F)n(C)c(=O)c(C)c32)c1` [Trametinib] + Cc1nc(-c2cn3c(n2)-c2ccc(-c4cnn(C(C)(C)C(N)=O)c4)cc2OCC3)n(C(C)C)n1 [Taselisib] (first compound max 1 µM, 7x7, partner max 10 µM), the Bliss excess was 0.103 in [1]; 0.115 in assay [2]; 0.0676 in assay [3]; 0.215 in assay [4]; 0.25 in [5]; -0.0601 in assay [6]. For the same molecule, the Bliss excess was -0.0486 in [7]; 0.0777 in assay [8]; 0.0256 in assay [9]; 0.0312 in assay [10]; 0.0493 in assay [11]; 0.0533 in [12]. The Bliss excess in assay [13] stood at 0.0401; in assay [14] it was 0.0501; in assay [15], 0.0452; in assay [16], 0.142; in assay [17] it was 0.0462; in assay [18], 0.0078. In assay [19], the Bliss excess worked out at 0.245. Also, the “combination Emax” value in [20] is 0.775.
Turning to `CC1(C)CCC(CN2CCN(c3ccc(C(=O)NS(=O)(=O)c4ccc(NCC5CCOCC5)c([N+](=O)[O-])c4)c(Oc4cnc5[nH]ccc5c4)c3)CC2)=C(c2ccc(Cl)cc2)C1` [Venetoclax] + C1CN(CCC1(C(=O)N[C@@H](CCO)C2=CC=C(C=C2)Cl)N)C3=NC=NC4=C3C=CN4 [Capivasertib] (first compound max 1 µM, 7x7, partner max 3 µM), the Bliss excess in assay [1] was 0.0559; in assay [2], -0.0218; in assay [3], -0.0081; in assay [4], 0.0074; in [5], -0.0102; in assay [6] it was 0.0303. Also, the Bliss excess in assay [7] was 0.0055; in [8], -0.0257; in assay [9] it was -0.0275; in assay [10], -0.066; in assay [11], 0.0099; in assay [12], -0.0379. Also, the Bliss excess in assay [13] is -0.0099; in [14], -0.0509; in assay [15], -0.0236; in [16], -0.027; in assay [17], -0.054; in [18], -0.0618. In assay [19], the Bliss excess came to 0.0155. Besides, in assay [20], the “combination Emax” value was 0.759.
`CC1(C)CCC(CN2CCN(c3ccc(C(=O)NS(=O)(=O)c4ccc(NCC5CCOCC5)c([N+](=O)[O-])c4)c(Oc4cnc5[nH]ccc5c4)c3)CC2)=C(c2ccc(Cl)cc2)C1` [Venetoclax] + C=CCn1c(=O)c2cnc(Nc3ccc(N4CCN(C)CC4)cc3)nc2n1-c1cccc(C(C)(C)O)n1 [AZD1775] (first compound max 1 µM, partner max 1 µM): the Bliss excess in assay [1] was 0.0356; in assay [2], -0.0588; in assay [3], 0.0035; in [4], 0.0122; in [5] it was 0.0368; in [6] it was -0.0104. Besides, the Bliss excess in assay [7] was -0.0349; in assay [8], -0.0085; in assay [9], -0.0031; in [10], -0.0295; in assay [11], -0.0663; in assay [12], -0.0404. For the same molecule, the Bliss excess in assay [13] is 0.0499; in assay [14], -0.0733; in assay [15] it was -0.0814; in assay [16], -0.0083; in assay [17], -0.0538; in assay [18], -0.0214. For the same molecule, in [19], the Bliss excess is 0.0832. The “combination Emax” value in assay [20] came out at 0.978.
